# Measured values as given in patent publication US20050240034A1, “Artemisinin-based peroxide compounds as broad spectrum anti-infective agents” (priority 2002, published 2005).
# Read-outs that look alike come from different tables or passages of the source.
# How the values were obtained:
# P. berghei N = assay: in vivo Peter's 4-day antimalarial test in mice, P. berghei N; parameters: P. berghei N P.O. ED50 / P. berghei N P.O. ED90: unit not given beside the values; conditions: mice, 4-day test; for P. berghei N P.O. ED50 / P. berghei N P.O. ED90 / P. berghei N S.C. ED50 / P. berghei N S.C. ED90: unit not given; for ED50: Plasmodium berghei, 96 h, unit inferred
# Experimental: (§1) The parasitemia is determined on the day following the last treatment—day 4 to determine qualitatively the presence and degree of activity at the screening dose.
# P. falciparum NF54 = assay: WHO/TDR in vitro antimalarial screen, NF54; format: cell-based, Plasmodium falciparum; conditions: NF54, chloroquine-sensitive, second value in brackets not explained
# Experimental: (§2) […]. All test compounds are solubilized in DMSO and diluted 400 fold (to rule out a DMSO effect) in culture medium with plasma for a starting concentration of at least 12,500 ng/mL. Drugs are subsequently diluted five fold using the Cetus Pro/Pette system utilizing a range of concentrations from 0.8 ng/mL to 12,500 ng/mL. Fifty percent inhibitory concentrations are reported in ng/mL.
# (§3) The D6 African P. falciparum clone is sensitive to chloroquine, pyrimethamine and sulfadoxine but resistant to mefloquine. The W2 Indochina P. falciparum clone is resistant to chloroquine, pyrimethamine and sulfadoxine but sensitive to mefloquine. The K1 P. falciparum is a resistant strain, where NF54 P. falciparum is a sensitive strain.
# P. yoelli ssp. NS = assay: in vivo 4-day antimalarial test in mice, P. yoelli ssp. NS; conditions: subcutaneous
# Experimental: as §1
# P. falciparum K1 = assay: WHO/TDR in vitro antimalarial screen, K1; format: cell-based, Plasmodium falciparum; conditions: K1, chloroquine-resistant
# Experimental: as §2, §3
# [1] = tested on: P. falciparum Indochina W2 clone; assay: WHO/TDR in vitro antimalarial screen, W2 clone; format: cell-based, Plasmodium falciparum; conditions: chloroquine-resistant, mefloquine-sensitive, second value in brackets not explained
# Experimental: (§4) All test compounds are solubilized in DMSO and diluted 400 fold (to rule out a DMSO effect) in culture medium with plasma for a starting concentration of at least 12,500 ng/mL. Drugs are subsequently diluted five fold using the Cetus Pro/Pette system utilizing a range of concentrations from 0.8 ng/mL to 12,500 ng/mL. Fifty percent inhibitory concentrations are reported in ng/mL.
# as §3
# [2] = tested on: Leishmania donovani promastigotes expressing firefly luciferase; assay: antileishmanial luciferase assay on transgenic promastigotes; format: cell-based; conditions: Table 1 (artemisinin analogues); NA = not active up to 125 μg/ml; read-out: Antileishmanial activity IC50
# Experimental: Antileishmanial activity of the compounds was tested on a transgenic cell line of Leishmania donovani promastigotes expressing firefly luciferase.^29a In a 96 well microplate assay, compounds with appropriate dilution were added to the leishmania promastigotes culture (2×10^6 cell/mL). The plates were incubated at 26° C. for 72 hours and growth of leishmania promastigotes was determined by luciferase assay with Steady Glo® reagent (Promega, USA). Pentamidine and Amphotericin B were used as standard antileishmanial agents. The analogues were simultaneously tested for cytotoxicity on VERO cells (monkey kidney fibroblast) by Neutral Red assay.^29b IC50 values for the compounds were computed from the growth inhibition curve.
# [3] = tested on: P. falciparum W2 (IndoChina); assay: antimalarial parasite LDH (pLDH) assay, W2; format: cell-based, Plasmodium falciparum; conditions: for P. falciparum (IC50) W2: LDH assay, Table 6; for S. I. (W2): Selectivity Index = IC50 (Vero cells)/IC50 (P. falciparum); for IC50: pLDH assay, Table 5, read-out: P. falciparum (W2 Clone) IC50
# Experimental: (§5) The Thad Cochran National Center for Natural Products Research (University of Mississippi) in vitro antimalarial screen was conducted using an enzyme assay for detection of P. falciparum (see procedure below). This assay is based on the observation that lactate dehydrogenase (LDH) of P. falciparum is distinguishable from host LDH activity. P. falciparum LDH rapidly uses 3-acetyl pyridine nicotinamide adenine dinucleotide (APAD) as a coenzyme in the biotransformation of […].^38 The same process is carried out in human red blood cells at a very slow rate.
# (§6) The “Antimalarial parasite LDH assay” is currently being conducted according the following procedure: prepare a suspension of RBC with a 2% parasitemia and 2% hematocrit in malaria complete medium. Dispense 200 μl aliquots of this suspension into each well of a 96 well microtiter plate. Add 10 μl volumes of the drugs to be tested in duplicate to the appropriate wells. Place the plates into humidified chamber and flush the cultures with a gas mixture consisting of 90% N2, 5% O2, and 5% CO2. Transfer the chamber containing the plates to an incubator, and incubate for 48 hours at 37° C. After 48 hours add 100 μl aliquots of the Malstat™ reagent to each well of a new 96-well microtiter plate Resuspend the cultures from the assay plate by mixing each well up and down several times. Remove 20 μl from each well of the resuspend culture and add to the plate containing the Malstat™ reagent. Incubate the plates at room temperature for 30 minutes. After 30 minutes, add to each well 20 μl of the 1:1 mixture of the NBT/PES solution (2 mg/ml and 0.1 mg/ml, respectively). Incubate the plates in the dark for 1 hour. Add 100 μl of 5% acetic acid solution to stop the reaction. The plate is then read at an endpoint of approximately 650 nm. The dose response curves are generated using Microsoft Excel.
# (§7) Antimalarial activity of the analogues was determined in vitro on chloroquine sensitive (D)6, Sierra Leone) and resistant (W2, IndoChina) strains of Plasmodium falciparum. The 96 well microplate assay is based on evaluation of the effect of the compounds on the growth of asynchronous cultures of P. falciparum, determined by the assay of parasite lactate dehydrogenase (pLDH) activity.^28 The appropriate dilutions of the compounds were prepared in DMSO or RPMI-1640 medium and added to the cultures of P. falciparum (2% hematocrit, 2% parasitemia) set up in clear flat bottomed 96 well plates. The plates were placed into the humidified chamber and flushed with a gas mixture of 90% N2, 5% CO2 & 5% O2. The cultures were incubated at 37° C. for 48 hours. Growth of the parasite in each well was determined by pLDH assay using Malstat® reagent. The medium and RBC controls were also set-up in each plate.
# [4] = tested on: P. falciparum Sierra Leone D6 clone; assay: WHO/TDR in vitro antimalarial screen (uptake of radiolabeled nucleic acid precursor), D6 clone; format: cell-based, Plasmodium falciparum; conditions: mefloquine-resistant, chloroquine-sensitive, second value in brackets not explained
# Experimental: as §4, §3
# [5] = tested on: P. falciparum D6 (Sierra Leone); assay: antimalarial parasite LDH (pLDH) assay, D6; format: cell-based, Plasmodium falciparum; conditions: for P. falciparum (IC50) D6: LDH assay, Table 6; for S. I. (D6): Selectivity Index = IC50 (Vero cells)/IC50 (P. falciparum); for IC50: pLDH assay, Table 5, read-out: P. falciparum (D6 Clone) IC50
# Experimental: as §5, §6
# as §7, with “plate. The standard antimalarial agents, chloroquine and artemisinin, were used as the positive controls while DMSO was tested as the negative control.” for “plate.”
Molecule,P. berghei N P.O. ED50 (P. berghei N; oral),P. berghei N P.O. ED90 (P. berghei N; oral),P. berghei N S.C. ED50 (P. berghei N; subcutaneous),P. berghei N S.C. ED90 (P. berghei N; subcutaneous),P. falciparum (IC50) NF54 (P. falciparum NF54),P. yoelli ssp. NS (S.C.) ED50 (P. yoelli ssp. NS; unit inferred) [mg/kg],P. falciparum (IC50) K1 (P. falciparum K1) [µg/mL],P. falciparum (IC50) W2 [1],P. falciparum (IC50) W2 [3] [µg/mL],S. I. (W2) ([3]; W2),P. falciparum (IC50) D6 [4],P. falciparum (IC50) D6 [5] [µg/mL],S. I. (D6) ([5]; D6),also measured
quinine [reference compound],71,118,25,190,9.08 ng/mL,128,0.0996,,,,,,,
"(+)-Octahydro-3,6α-dimethyl-3,12-epoxy-9β-(3′-(m-fluorophenyl)propyl)-12H-pyrano[4,3j]-1,2-benzodioxepin [Compound 37]",0.9 (0.38-1.9),3.4 (1.45-7.5),0.46 (0.19-1.1),0.85 (0.36-2.3),41.76 (27.33) ng/mL,,0.01156,26.83 ng/mL,0.012,>40,8.28 ng/mL,0.011,>43.0,IC50 [2]: 88300 nM; P. yoelli ssp. NS (S.C.) ED50 (P. yoelli ssp. NS; unit not given): 0.58 (0.45-1.0); P. yoelli ssp. NS (S.C.) ED90 (P. yoelli ssp. NS; unit not given): 1.00 (0.8-1.8)
"(+)-Octahydro3,6α-dimethyl-3,12-epoxy-9β-(3′-(3,5-difluorophenyl)propyl)-12H-pyrano[4,3j]-1,2-benzodioxepin [Compound 41]",<10,<10,<10,<10,,,,6.70 ng/mL,0.0023,>207,,0.0038,>125,
"OC(c1cc(C(F)(F)F)nc2c(C(F)(F)F)cccc12)C1CCCCN1 (stereo not shown) [Mefloquine, mefloquine, reference compound]",,2.3,,3.8,,,,,,,,,,"IC50 ([1]; Plasmodium falciparum): 0.0341 µg/mL; ED50 (P. berghei N; oral, read-out: P. berghei N P.O. ED50): 1.1 mg/kg; ED50 (P. berghei N; sc, subcutaneous, read-out: P. berghei N S.C. ED50): 1.5 mg/kg; IC50 (P. falciparum NF54; Plasmodium falciparum): 0.0354 µg/mL; IC50 ([3]; Plasmodium falciparum, W2): 195 nM; IC50 ([4]; Plasmodium falciparum): 0.0456 µg/mL; ED50 (P. yoelli ssp. NS; Plasmodium yoelii, sc, unit inferred, read-out: P. yoelli ssp. NS (S.C.) ED50): 2.3 mg/kg; IC50 (P. falciparum K1; Plasmodium falciparum): 0.0203 µg/mL; IC50 ([5]; Plasmodium falciparum, D6): 170 nM"
"CCN(CC)CCCC(C)Nc1ccnc2cc(Cl)ccc12 (stereo not shown) [Chloroquine, chloroquine, reference compound]",1.7,3.1,1.5,3,7.36 ng/mL,1.6,0.07901,118.04 ng/mL,,,7.58 ng/mL,,,IC50 [3]: 233 nM; P. yoelli ssp. NS (S.C.) ED90 (P. yoelli ssp. NS; unit inferred): 28 mg/kg; IC50 [5]: 16.5 nM
"(+)-Octahydro-3,6α-dimethyl-3,12-epoxy-9β-(3′-(3,5-bistrifluoromethylphenyl)propyl)-12H-pyrano[4,3j]-1,2-benzodioxepin [Compound 40]",<10,<10,<10,<10,,,,7.11 ng/mL,0.0095,>50,,0.012,>40,
CC1CCC2C(CCCc3ccc(Cl)cc3)COC3OC4(C)CCC1C32OO4 (stereo not shown) [Compound 11],1.0,2.1,0.7,1.2,,0.6,,3.0 (2.2) ng/mL,,,1.9 (1.9) ng/mL,,,P. yoelli ssp. NS (S.C.) ED90 (P. yoelli ssp. NS; unit inferred): 1 mg/kg
"(+)-Octahydro-3,6α-dimethyl-3,12-epoxy-9β-(3′-(m-trifluoromethylphenyl)propyl)-12H-pyrano[4,3j]-1,2-benzodioxepin [Compound 38]",1.25 (0.5-2.3),4.4 (1.3-6.2),0.4 (0.2-1.2),0.75 (0.4-2.1),35.60 (30.76) ng/mL,,0.012,30.32 ng/mL,0.011,>43,8.48 ng/mL,0.0087,>55.0,IC50 [2]: 1900 nM; IC50 [3]: 11.3 nM; P. yoelli ssp. NS (S.C.) ED50 (P. yoelli ssp. NS; unit not given): 0.60 (0.3-0.9); P. yoelli ssp. NS (S.C.) ED90 (P. yoelli ssp. NS; unit not given): 1.00 (0.5-1.5); IC50 [5]: 27.8 nM
